The text below walks through data of patent US20180251495A1, “Skin-Penetrating Peptides and Compositions and Methods of Use Thereof” (The Regents of the University of California, priority 2015, published 2018).

Where two headings read alike, the source gives them in different places. Where a SMILES comes first, the peptide text is derived from it. Bridges are numbered along the chain shown (N, C = ends). Where no end group is shown, it is not given here.

The nature of series [1]: In vitro skin permeation of radiolabelled SPPs in Franz diffusion cells. It counts as in vitro ADME, porcine. The protocol:
Test formulations were loaded and incubated as described.
The skin penetrating ability of the selected heptamer (SP7-1 through SP7-5) SPPs was evaluated in comparison with SPACE™. […] Radiolabelled peptides were loaded on Franz diffusion cells (FDCs) and incubated at 37° C. with moderate stirring. After 24 hours, the various skin layers were harvested, dissolved and analyzed using a scintillation counter to determine the amount of peptide.

For series [2], the system named is HEKa cells (human adult epidermal keratinocytes). Nature of the series: MTT cytotoxicity assessment in keratinocytes. It is filed as cell-based. The conditions noted are these: overnight incubation, MTT. The protocol:
(§1) HEKa cells were cultured in 1× keratinocyte Serum-Free Medium supplemented with 25 U/mL penicillin, 25 μg/mL streptomycin, and 50 μg/mL neomycin. Cultures were grown at 37° C. with 5% CO2. The cytotoxicity of SPPs was assessed using the MTT Cell Proliferation Assay (ATCC, Manassas, Va.). HEKa cells were seeded in 96-well microplates (Corning Inc., Corning, N.Y.) at a density of 5000 cells/well. Cultures were allowed to grow until they reached ˜80% confluency. Cells were then incubated with 200 μL of 10, 5, or 2.5 mg/mL of selected SPPs in media. The pH was adjusted to afford complete dissolution of peptides. Media only was used as a negative control, and media or SPP formulations without cells was used to subtract background. Cytotoxicity was assessed after overnight incubation. Viability was determined according to the manufacturer's recommended protocol using a SAFIRE, XFLUOR4, V4.50 microplate reader (Tecan Group Ltd, Morrisville, N.Y.).
(§2) To assess the potential for skin toxicity, SPPs were incubated with HEKa cells overnight and % viability was determined. HEKa cells were used since keratinocytes are the primary cell-type in the skin, and therefore, represent a good estimate of the potential for skin irritation.

For series [3] the following is noted: for solubility in PBS: PBS pH 8.0.
Series [4] in a line: MTT cytotoxicity assessment in keratinocytes. It is filed as cell-based, human. The conditions noted are these: human, HEKa cells (adult epidermal keratinocytes); HEKa cells exposed to 5 mg/mL peptide in solution. The protocol:
as §1, §2

Series [5] concerns the target human keratin (human). In words: batch adsorption isotherm (affinity chromatography): peptide coupled to Toyopearl AF-Epoxy-650 resin, human keratin in PBS pH 7.4 in solution, Langmuir fit.
The target of series [6] is human keratin (human). In words: batch affinity chromatography, peptide on Toyopearl resin, human keratin in solution, Langmuir fit.
Where [7] appears, read: peptide amount after 24 hours, 37° C.

Take `C[C@H](N)C(=O)N[C@H]1CSSC[C@@H](C(=O)NCC(=O)O)NC(=O)[C@H](C)NC(=O)[C@H](CC(N)=O)NC(=O)[C@H](CCCNC(=N)N)NC(=O)CNC(=O)[C@H]([C@@H](C)O)NC(=O)[C@H](CO)NC(=O)[C@H]([C@@H](C)O)NC1=O` [SP7-4, ACTSTGRNACG] (H-ACTSTGRNACG-OH; disulfide 2-10; N-terminus and C-terminus assumed): in series [1] (setting [7]), the “Skin permeation, Dermis” value came to 53.7 ± 31.1 μg/cm^2; the “Skin permeation, Receptor” value was 19.8 ± 19.8 μg/cm^2; the “Skin permeation, SC + Epidermis” value is 545.2 ± 79.1 μg/cm^2. Also, in series [2], the “toxicity to HEKa cells” value is recorded as “significantly toxic (p <0.001) at only 1 mg/mL”. Besides, the “solubility in PBS” value in series [3] was “did not give any solubility problems”.
The term viability denotes a read-out of living cells in per cent, often relative to untreated cells. A lower viability goes with a greater loss of cells. On to `C[C@H](N)C(=O)N[C@H]1CSSC[C@@H](C(=O)NCC(=O)O)NC(=O)[C@H](CC(N)=O)NC(=O)[C@H](Cc2c[nH]cn2)NC(=O)[C@H](CC(N)=O)NC(=O)[C@H]([C@@H](C)O)NC(=O)[C@H](CO)NC(=O)[C@H](C)NC(=O)[C@H](CO)NC1=O` [SP7-5, ACSASTNHNCG] (H-ACSASTNHNCG-OH; disulfide 2-10; N-terminus and C-terminus assumed), for which, in series [1] (setting [7]), the “Skin permeation, Dermis” value stood at 124.3 ± 28.2 μg/cm^2; the “Skin permeation, Receptor” value came to 39.5 ± 8.5 μg/cm^2; the “Skin permeation, SC + Epidermis” value is 759.9 ± 62.1 μg/cm^2. In series [4], the viability at 5000 µg/mL turned out to be 60.1 ± 2.6%. Also, the “toxicity to HEKa cells” value in series [2] is listed as “significantly toxic (p <0.001) at only 1 mg/mL”. The “solubility in PBS” value in series [3] is “did not give any solubility problems”.
As to `CC(C)C[C@@H]1NC(=O)[C@@H](NC(=O)[C@H](C)N)CSSC[C@@H](C(=O)NCC(=O)O)NC(=O)[C@H](C)NC(=O)[C@H](CC(N)=O)NC(=O)[C@H](Cc2c[nH]cn2)NC(=O)[C@H](CC(N)=O)NC(=O)[C@H](C(C)C)NC(=O)[C@H](CO)NC1=O` [SP7-3, ACLSVNHNACG] (H-ACLSVNHNACG-OH; disulfide 2-10; N-terminus and C-terminus assumed), in series [1] (setting [7]), the “Skin permeation, Dermis” value is reported as 39.5 ± 25.4 μg/cm^2; the “Skin permeation, Receptor” value was found to be 16.9 ± 11.3 μg/cm^2; the “Skin permeation, SC + Epidermis” value is recorded as 759.9 ± 73.4 μg/cm^2. Besides, in series [2], the “toxicity to HEKa cells” value was “significantly toxic (p <0.001) at only 1 mg/mL”. In addition, the “solubility in presence of CsA” value in series [3] (in presence of CsA) is listed as “could not be fully solubilized”.
For `CC(C)C[C@@H]1NC(=O)[C@H]([C@@H](C)O)NC(=O)[C@H](C)NC(=O)[C@H](CO)NC(=O)[C@@H](NC(=O)[C@H](C)N)CSSC[C@@H](C(=O)NCC(=O)O)NC(=O)[C@H](CO)NC(=O)[C@H](Cc2c[nH]cn2)NC(=O)[C@H](CCC(N)=O)NC1=O` [SP7-1, ACSATLQHSCG] (H-ACSATLQHSCG-OH; disulfide 2-10; N-terminus and C-terminus assumed), in series [1] (setting [7]), the “Skin permeation, Dermis” value is given as 149.7 ± 5.6 μg/cm^2; the “Skin permeation, Receptor” value amounted to 42.4 ± 8.5 μg/cm^2; the “Skin permeation, SC + Epidermis” value worked out at 819.2 ± 62.2 μg/cm^2. The “toxicity to HEKa cells” value in series [2] is “only toxic when at 10 mg/mL”. The “pH adjusted to achieve complete solubility” value in series [3] (PBS) is reported as 8.5.
On to `C[C@H](N)C(=O)N[C@H]1CSSC[C@@H](C(=O)NCC(=O)O)NC(=O)[C@H](CCC(N)=O)NC(=O)[C@H](Cc2c[nH]cn2)NC(=O)[C@H](CCC(N)=O)NC(=O)[C@H]([C@@H](C)O)NC(=O)[C@H](CO)NC(=O)CNC(=O)[C@H]([C@@H](C)O)NC1=O` [SPACE™, ACTGSTQHQCG, reference compound] (H-ACTGSTQHQCG-OH; disulfide 2-10; N-terminus and C-terminus assumed), for which, in series [1], the “Skin permeation, Dermis” value is given as 200.6 ± 59.3 μg/cm^2; the “Skin permeation, Receptor” value is recorded as 96.0 ± 31.1 μg/cm^2; the “Skin permeation, SC + Epidermis” value is recorded as 782.5 ± 84.7 μg/cm^2. In series [4], this molecule came in with a viability at 5000 µg/mL of 99.4 ± 3.9%.
On to `C[C@H](N)C(=O)N[C@H]1CSSC[C@@H](C(=O)NCC(=O)O)NC(=O)[C@H]([C@@H](C)O)NC(=O)[C@H](CO)NC(=O)[C@H](CCCNC(=N)N)NC(=O)[C@H](C)NC(=O)[C@H](CCC(N)=O)NC(=O)[C@H](Cc2c[nH]cn2)NC(=O)[C@H](C)NC(=O)[C@H](CC(N)=O)NC1=O` [SP8-1, ACNAHQARSTCG] (H-ACNAHQARSTCG-OH; disulfide 2-11; N-terminus and C-terminus assumed), for which the “toxicity to HEKa cells” value is “no observable toxicity” in series [2] and “non-toxic at concentrations as high as 10 mg/mL” in series [2] (listed as octamer).
Turning to `CC(C)C[C@@H]1NC(=O)[C@H](CO)NC(=O)[C@@H](NC(=O)[C@H](C)N)CSSC[C@@H](C(=O)NCC(=O)O)NC(=O)[C@H](CC(N)=O)NC(=O)[C@H](Cc2c[nH]c3ccccc23)NC(=O)[C@H](CC(N)=O)NC(=O)[C@H](C(C)C)NC(=O)[C@H]([C@@H](C)O)NC1=O` [SP7-2, ACSLTVNWNCG] (H-ACSLTVNWNCG-OH; disulfide 2-10; N-terminus and C-terminus assumed), in series [1] (setting [7]), the “Skin permeation, Dermis” value is listed as 166.7 ± 45.2 μg/cm^2; the “Skin permeation, Receptor” value worked out at 65.0 ± 14.1 μg/cm^2; the “Skin permeation, SC + Epidermis” value was determined as 774.0 ± 110.2 μg/cm^2. Besides, in series [2] (listed as SP-2), the “toxicity to HEKa cells” value is recorded as “some toxicity for all concentrations tested, however, the results were not statistically significant”. Also, the “solubility in PBS” value in series [3] is “did not give any solubility problems”.
On to `C[C@H](N)C(=O)N[C@H]1CSSC[C@@H](C(=O)NCC(=O)O)NC(=O)[C@H](CC(N)=O)NC(=O)[C@H](CCCNC(=N)N)NC(=O)CNC(=O)[C@H]([C@@H](C)O)NC(=O)[C@H](Cc2c[nH]cn2)NC(=O)[C@H]([C@@H](C)O)NC1=O` [SP6-1, ACTHTGRNCG] (H-ACTHTGRNCG-OH; disulfide 2-9; N-terminus and C-terminus assumed), for which the “toxicity to HEKa cells” value in series [2] is listed as “no observable toxicity”; in series [2] (listed as hexamer), “non-toxic at concentrations as high as 10 mg/mL”.
Broadly, the Kd is the concentration at which binding is half-saturated. The low end stands for higher affinity, the high end for lower affinity. Take ACLSVNHNACG (disulfide 2-10 (inferred)) [SP7-3 (…)]: the Kd was 423 µg/mL in series [5] and 9.4 µM in series [6]. The Experimental Qmax in series [6] is 4.07 mg/mL resin.
The matching figures for ACTSTGRNACG (disulfide 2-10 (inferred)) [SP7-4 (…)]: 716 µg/mL, 15.8 µM and 3.43 mg/mL resin.
In series [5], ACSASTNHNCG (disulfide 2-10 (inferred)) [SP7-5 (…)] yielded a Kd of 456 µg/mL. In series [6], this molecule yielded an Experimental Qmax of 4.01 mg/mL resin and a Kd of 10.1 µM.
Consider ACSLTVNWNCG (disulfide 2-10 (inferred)) [SP7-2 (…)], for which the Kd in series [5] amounted to 393 µg/mL. In series [6], this molecule showed an Experimental Qmax of 4.09 mg/mL resin and a Kd of 8.73 µM.
The corresponding values for ACSATLQHSCG (disulfide 2-10 (inferred)) [SP7-1 (…)] are 361 µg/mL, 4.16 mg/mL resin and 8.02 µM.
The matching figures for ACTGSTQHQCG (disulfide 2-10 (inferred)) [SPACE™ peptide (…)]: 477 µg/mL, 3.98 mg/mL resin and 10.6 µM.
